Measured values published in article PMC5269379 (Organic letters, 2016).
Entries after “also recorded” stand apart in the source; their conditions may differ.

Key:
L. lactis 481 = assay type: cell-based, Lactococcus lactis; conditions: for combined with CylLL″ MIC: concentration of each component; for combined with CylLL″ MIC / individual MIC: L. lactis 481; for individual MIC: peptide alone
[1] = tested on: Lactococcus lactis HP and L. lactis CNRZ 481; experiment: Antimicrobial activity assay; assay type: cell-based; conditions: in combination with CylLL″; Figures S2, S5
rabbit red blood cells = experiment: Synergistic hemolytic activity in combination with CylLL″; assay type: cell-based; conditions: Figure S6

| Substance | combined with CylLL″ MIC (L. lactis 481; combined with CylLL″) | fold increase of MIC in liquid culture (L. lactis 481; combined with CylLL″, liquid culture) | individual MIC (L. lactis 481) | antimicrobial activity (in words) [1] | hemolytic activity (in words) (rabbit red blood cells) |
| --- | --- | --- | --- | --- | --- |
| CylLS″-Dhb2Dha (DL-A ring, DL-B ring) [compound 11] | 1.0 µM | 10 fold | >50 µM | decreased antimicrobial activity; also recorded: markedly smaller zone of growth inhibition | no decrease of hemolytic activity |
| CylLS″-Dhb2Dha (LL-A ring, DL-B ring) [synthetic 12] | 0.1 µM | – | >50 µM | identical antimicrobial activity | – |
| CylLS″-Dhb2Dha [biosynthetic 12] | 0.1 µM | – | >50 µM | very similar antimicrobial activity | very similar hemolytic activity |
| cytolysin L [CylLL″, reference compound] | – | – | >50 µM | – | – |
| cytolysin S [CylLS″, reference compound] | 0.05 µM | – | >50 µM | – | very similar hemolytic activity |
